In brackets after ≈: the same amount, converted by molar mass. Activity calls are given as the source filed them. The rule behind the calls is not given here.
Tests used:
Nakaseomyces glabratus [1] = experiment: Antifungal activity against fluconazole-resistant Candida glabrata 0161 assessed as fungal growth inhibition incubated for 48 hrs by microplate reader assay; assay type: functional
[2] = Inhibition of fluorescent probe FITC tagged PDR1-KIX domain (unknown origin) protein-protein interaction assessed as inhibition constant incubated for 2 hrs by fluorescence polarization binding assay
[3] = Binding affinity to Candida glabrata KIX domain assessed as dissociation constant; parameters: species or system Nakaseomyces glabratus
Nakaseomyces glabratus [4] = experiment: Antifungal activity against fluconazole-resistant Candida glabrata 0161 assessed as fluconazole fractional inhibitory concentration incubated for 48 hrs in presence of fluconazole by microplate reader assay; assay type: functional
Nakaseomyces glabratus [5] = experiment: Synergistic antifungal activity against fluconazole-resistant Candida glabrata 0161 assessed as fractional inhibitory concentration index incubated for 48 hrs in presence of fluconazole by checkerboard microdilution method; assay type: functional
Nakaseomyces glabratus [6] = experiment: Antifungal activity against fluconazole-resistant Candida glabrata 0161 assessed as fractional inhibitory concentration incubated for 48 hrs in presence of fluconazole by microplate reader assay; assay type: functional
[7] = Aqueous solubility of compound; assay type: physicochemical
Nakaseomyces glabratus [8] = experiment: Antifungal activity against FLC-resistant Candida glabrata 0161 infected in cyclophosphamide immunosuppressed ICR mouse model assessed as inhibition of fungal growth in kidney at 40 mg/kg,ip administrated for 5 days; assay type: functional, organism-based; conditions: time 5.0 day
Candida tropicalis = experiment: Antifungal activity against Candida tropicalis 10186 assessed as fungal growth inhibition incubated for 48 hrs by microplate reader assay; assay type: functional
Candida parapsilosis = experiment: Antifungal activity against Candida parapsilosis 20090 assessed as fungal growth inhibition incubated for 48 hrs by microplate reader assay; assay type: functional; conditions: Lodderomyces parapsilosis
Nannizzia gypsea = experiment: Antifungal activity against Microsporum gypseum assessed as fungal growth inhibition incubated for 48 hrs by microplate reader assay; assay type: functional
Nakaseomyces glabratus [9] = experiment: Antifungal activity against fluconazole-resistant Candida glabrata 8535 assessed as fungal growth inhibition incubated for 48 hrs by microplate reader assay; assay type: functional
Nakaseomyces glabratus [10] = experiment: Antifungal activity against fluconazole-resistant Candida glabrata 9256 assessed as fungal growth inhibition incubated for 48 hrs by microplate reader assay; assay type: functional
Aspergillus fumigatus = experiment: Antifungal activity against Aspergillus fumigatus 7544 assessed as fungal growth inhibition incubated for 48 hrs by microplate reader assay; assay type: functional
Cryptococcus neoformans = experiment: Antifungal activity against Cryptococcus neoformans H99 assessed as fungal growth inhibition incubated for 48 hrs by microplate reader assay; assay type: functional
[Candida] auris [11] = Antifungal activity against Candida auris 0030 assessed as fungal growth inhibition incubated for 48 hrs by microplate reader assay; assay type: functional; conditions: Candidozyma auris
Trichophyton rubrum = experiment: Antifungal activity against Trichophyton rubrum assessed as fungal growth inhibition incubated for 48 hrs by microplate reader assay; assay type: functional
[Candida] auris [12] = Antifungal activity against Candida auris 15448 assessed as fungal growth inhibition incubated for 48 hrs by microplate reader assay; assay type: functional; conditions: Candidozyma auris
Candida albicans = experiment: Antifungal activity against Candida albicans assessed as fungal growth inhibition incubated for 48 hrs by microplate reader assay; assay type: functional

Row | SMILES | MIC (Nakaseomyces glabratus [1]) [µg/mL] | Ki [2] [µM] | Kd [3] [µM] | fluconazole MIC in combination (Nakaseomyces glabratus [4]) [µg/mL] | fractional inhibitory concentration index (FICI) (Nakaseomyces glabratus [5]) | FIC (Nakaseomyces glabratus [6]) [µg/mL] | solubility [7] [µg/mL] | Activity (Nakaseomyces glabratus [8]) | MIC (Candida tropicalis) [µg/mL] | MIC (Candida parapsilosis) [µg/mL] | MIC (Nannizzia gypsea) [µg/mL] | MIC (Nakaseomyces glabratus [9]) [µg/mL] | MIC (Nakaseomyces glabratus [10]) [µg/mL] | MIC (Aspergillus fumigatus) [µg/mL] | MIC (Cryptococcus neoformans) [µg/mL] | MIC ([Candida] auris [11]) [µg/mL] | MIC (Trichophyton rubrum) [µg/mL] | MIC ([Candida] auris [12]) [µg/mL] | MIC (Candida albicans) [µg/mL]
1 | N#CCC(=O)NNC(=S)Nc1ccc(Cl)c(Cl)c1 | 32 (≈ 106 µM) | 29.2 | 2.8 | 2 | 0.31 | 8 | 9.12 (≈ 30.1 µM) | Active |  |  |  |  |  |  |  |  |  |  | 
2 | Nc1cc(=O)n(C(=S)Nc2ccc(Cl)cc2)[nH]1 | 0.25 (≈ 0.93 µM) | 54.5 |  | 2 | 0.31 | 0.063 |  |  | 4 (≈ 14.9 µM) | 4 (≈ 14.9 µM) | 1 (≈ 3.72 µM) | 0.25 (≈ 0.93 µM) | 0.25 (≈ 0.93 µM) | 16 (≈ 59.5 µM) | 0.063 (≈ 0.234 µM) | 2 (≈ 7.44 µM) | 1 (≈ 3.72 µM) | 2 (≈ 7.44 µM) | 4 (≈ 14.9 µM)
3 | Nc1cc(=O)n(C(=S)Nc2ccc(Cl)c(Cl)c2)[nH]1 | 0.25 (≈ 0.825 µM) | 109 |  | 0.25 | 0.53 | 0.13 |  |  | 4 (≈ 13.2 µM) | 4 (≈ 13.2 µM) | 1 (≈ 3.3 µM) | 0.25 (≈ 0.825 µM) | 0.25 (≈ 0.825 µM) | 16 (≈ 52.8 µM) | 0.063 (≈ 0.208 µM) | 2 (≈ 6.6 µM) | 1 (≈ 3.3 µM) | 2 (≈ 6.6 µM) | 4 (≈ 13.2 µM)
4 | Nc1cc(=O)n(C(=S)Nc2ccc(Cl)cc2Cl)[nH]1 | 0.5 (≈ 1.65 µM) | 84.7 |  | 1 | 0.29 | 0.13 |  |  | 4 (≈ 13.2 µM) | 4 (≈ 13.2 µM) | 1 (≈ 3.3 µM) | 0.25 (≈ 0.825 µM) | 0.25 (≈ 0.825 µM) | 16 (≈ 52.8 µM) | 0.063 (≈ 0.208 µM) | 2 (≈ 6.6 µM) | 1 (≈ 3.3 µM) | 2 (≈ 6.6 µM) | 4 (≈ 13.2 µM)
